Earlier results, collected in US20020051751A1, “Pharmaceuticals and apparatus providing diagnosis and selective tissue necrosis” (priority 1985, published 2002).

Tested on: DNA

For Bleomycin, the “binding constant of Bleomycin to DNA” value is listed as 10^6 and the “Bleomycin molecules bound per nucleotides” value (results from Kd of 10^6) is listed as “one Bleomycin molecule bound per eight nucleotides”.
